Test results as given in patent US11548946B2, “Carrier-PD-L1 binding agent compositions for treating cancers” (Mayo Foundation for Medical Education and Research, priority 2016, dated 2023).

Assays:
[1] = biological target: T1, CD20 (Homo sapiens, UniProt P11836); assay: Flow cytometry: blocking of fluorescent anti-CD20 labeling of Daudi cells; type: cell-based; conditions: CD20 positive Daudi lymphoma cells pretreated prior to CD20 labeling
T1 construct: CD20 positive Daudi lymphoma cells; endogenous in cells; host or cells: Daudi lymphoma cells
T1 sequence (P11836 1-297): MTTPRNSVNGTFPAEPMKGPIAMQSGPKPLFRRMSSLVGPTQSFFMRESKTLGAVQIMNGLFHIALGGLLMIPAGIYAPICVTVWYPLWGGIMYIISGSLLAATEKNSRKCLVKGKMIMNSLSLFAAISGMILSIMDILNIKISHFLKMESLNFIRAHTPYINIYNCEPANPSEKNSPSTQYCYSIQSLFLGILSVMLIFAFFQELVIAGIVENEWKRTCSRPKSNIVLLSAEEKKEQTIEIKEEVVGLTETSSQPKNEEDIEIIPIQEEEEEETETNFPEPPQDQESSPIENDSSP
Source text: FIGS. 1A-1F depicts the results of an experiment in which CD20 positive Daudi lymphoma cells were labeled with fluorescent tagged anti-human CD20 or isotype matched control in panels F and A, respectively, and analyzed by flow cytometry. In the other panels, the Daudi cells were pretreated with ABRAXANE® (ABX; FIG. 1B), ABX/rituximab nanoparticles (AR160; FIG. 1C), lyophilized and resuspended AR160 (AR160L; FIG. 1D), or Rituxan (FIG. 1E) prior to CD20 labeling.
CD20 positive Daudi lymphoma cells were labeled with fluorescent tagged anti-human CD20 or isotype matched control in panel F and A, respectively, and analyzed by flow cytometry. In the other panels, the Daudi cells were pretreated with ABX, AR160, AR160L (AR160 lyophilized and resuspended into a solution suitable for injection), or Rituxan prior to CD20 labeling.

[2] = biological target: ABX; assay: Biolayer interferometry (BLItz) of biotinylated atezolizumab on streptavidin probes exposed to ABX; conditions: ABX at 100, 500, 1000 μg/mL in 1×PBS; read-out: Kd (binding affinity between atezolizumab and ABX)
Experimental: Biolayer interferometry (BLItz) (Forte Bioscience) was performed using streptavidin probes.
To determine whether atezolizumab and ABX are capable of interacting to form nanoparticle complexes, Biolayer interferometry (BLItz) (Forte Bioscience) was performed using streptavidin probes. 100 ug/ml of biotinylated atezolizumab in 1×PBS was bound to the streptavidin probe. After washing unbound atezolizumab from the probe, the antibody-bound probe was exposed to ABX at concentrations of 100, 500, 1000 μg/mL in 1×PBS. An antibody probe exposed to PBS was used as background and background was subtracted. BLItz software was used to calculate dissociation constants (FIG. 7).

[3] = test system: PD-L1 positive C8161 melanoma tumor cells; assay: In vivo efficacy in athymic nude mice bearing C8161 melanoma tumors; conditions: single IV tail vein dose; atezolizumab 18 mg/kg, ABX 45 mg/kg, AA130 18 mg/kg atezolizumab and 45 mg/kg ABX
Experimental: FIGS. 11A-11D show the change in tumor volume over time in mice that were injected with 2×10^6 PD-L1 positive C8161 melanoma tumor cells, then treated by 100 ul IV tail vein injection with saline (FIG. 11A), atezolizumab alone (18 mg/kg; FIG. 11B), ABX alone (45 mg/kg; FIG. 11C) and AA130 (18 mg/kg atezolizumab and 45 mg/kg ABX; FIG. 11D) one time. Tumor growth was monitored 3 times per week. Tumor size was calculated with the equation: (length×width^2)/2.
Kaplan Meier curves were generated using Graph Pad software. The median survival for each group was 14, 13, 16, and 21.5 days for saline, atezolizumab, Abraxane and AA130, respectively. Survival differences between AA130 and all other groups were significant, with p-values of 0.0008 for saline, 0.0015 for atezolizumab, and 0.0113 for ABX.
Athymic nude mice (Harlan Sprague Dawley) were injected with 2×10^6 PD-L1 positive C8161 melanoma tumor cells. The tumors were allowed to grow until about 600 mm^3 and were treated by 100 μl IV tail vein injection with saline, atezolizumab alone (18 mg/kg), ABX alone (45 mg/kg) and AA130 (18 mg/kg atezolizumab and 45 mg/kg ABX) one time (FIGS. 11A-11D). Tumor growth was monitored 3 times/week. Tumor size was calculated with the equation: (length×width^2)/2.
Kaplan Meier curves were generated using Graph Pad software. […]

## Rituxan: rituximab, anti-CD20 antibody used as free antibody control
[1]
  CD20 binding of fluorescent anti-CD20 antibody after pretreatment: specifically blocked

## atezolizumab: anti-PD-L1 mAb, humanized monoclonal antibody
[2]
  Kd: 1.46 nM
[3]
  median survival: 13 days
